Laboratory results: PubChem BioAssay AID322 (DTP/NCI, 2004)
Values joined by “and” are separate entries in the source; they are usually repeats but may differ in a detail not shown here. Equal entries are not always repeated. Toxic doses and inconclusive results are not listed.

Tested on: CD2F1 mice, P388/ADR leukemia ip, median survival T/C
Experiment: NCI In Vivo Anticancer Drug Screen. Data for tumor model P388 Leukemia resistant to Adriamycin; NSC 123127, Developed at Scr 08 (intraperitoneal) in CD2F1 (CDF1) mice
Settings: endpoint: median survival time, higher = longer survival
Procedure: The antitumor activity of compounds was measured in mice bearing transplantable tumors. Survival or tumor size were measured and the results are expressed as the measurement made in the treated group (T) divided by the measurement made in the vehicle treated control group (C). The tumor model used in this assay is P388 Leukemia resistant to Adriamycin; NSC 123127, Developed at Scr 08 (intraperitoneal) in CD2F1 (CDF1) mice

[1] = dose: 150.0 mg/kg/injection, schedule: Q01DX005 (ip), vehicle: saline
[2] = dose: 44.0 mg/kg/injection, schedule: Q01DX009 (ip), vehicle: saline
[3] = dose: 67.0 mg/kg/injection, schedule: Q01DX009 (ip), vehicle: saline
[4] = dose: 100.0 mg/kg/injection, schedule: Q01DX009 (ip), vehicle: saline
[5] = dose: 150.0 mg/kg/injection, schedule: Q01DX009 (ip), vehicle: saline

For `CN(C)/N=N/c1nc[nH]c1C(N)=O`, the T/C (dose: 25.0 mg/kg/injection, schedule: Q01DX009 (ip), vehicle: distilled water + Tween-80) was 112 % of control, the T/C (dose: 50.0 mg/kg/injection, schedule: Q01DX009 (ip), vehicle: distilled water + Tween-80) was 124 % of control and the T/C (dose: 100.0 mg/kg/injection, schedule: Q01DX009 (ip), vehicle: distilled water + Tween-80) was 166 % of control. For the same molecule, the T/C (dose: 200.0 mg/kg/injection, schedule: Q01DX009 (ip), vehicle: distilled water + Tween-80) was 158 % of control and 178 % of control and the T/C (dose: 400.0 mg/kg/injection, schedule: Q01DX009 (ip), vehicle: distilled water + Tween-80) was 201 % of control and 123 % of control.
For `CCOc1ccc(C(C)c2cc3c(cc2OC)OCO3)cc1` (centres undefined), the T/C (dose: 25.0 mg/kg/injection, schedule: Q01DX005 (ip), vehicle: distilled water + Tween-80) was 110 % of control, the T/C (dose: 50.0 mg/kg/injection, schedule: Q01DX005 (ip), vehicle: distilled water + Tween-80) was 100 % of control and the T/C (dose: 72.0 mg/kg/injection, schedule: Q01DX005 (ip), vehicle: distilled water + Tween-80) was 117 % of control. For the same molecule, the T/C (dose: 100.0 mg/kg/injection, schedule: Q01DX005 (ip), vehicle: distilled water + Tween-80) was 113 % of control, the T/C (dose: 120.0 mg/kg/injection, schedule: Q01DX005 (ip), vehicle: distilled water + Tween-80) was 118 % of control and the T/C (dose: 200.0 mg/kg/injection, schedule: Q01DX005 (ip), vehicle: distilled water + Tween-80) was 167 % of control and 184 % of control. The T/C (dose: 333.33 mg/kg/injection, schedule: Q01DX005 (ip), vehicle: distilled water + Tween-80) was 165 % of control and 176 % of control.
With `COc1cccc2c1C(=O)c1c(O)c3c(c(O)c1C2=O)C[C@@](O)(C(=O)CO)C[C@@H]3OC1CC(N)C(O)C(C)O1` (some centres undefined) the T/C (dose: 0.38 mg/kg/injection, schedule: Q01DX009 (ip), vehicle: saline) was 118 % of control, the T/C (dose: 0.43 mg/kg/injection, schedule: Q01DX009 (ip), vehicle: saline) was 86 % of control and the T/C (dose: 0.75 mg/kg/injection, schedule: Q01DX009 (ip), vehicle: saline) was 109 % of control. For the same molecule, the T/C (dose: 0.97 mg/kg/injection, schedule: Q04DX002 (ip), vehicle: saline) was 110 % of control, the T/C (dose: 0.97 mg/kg/injection, schedule: Q04DX003 (ip), vehicle: saline) was 98 % of control and the T/C (dose: 0.97 mg/kg/injection, schedule: Q04DX003 (ip), vehicle: water) was 100 % of control. The T/C (dose: 1.2 mg/kg/injection, schedule: Q01DX009 (ip), vehicle: saline) was 98 % of control, the T/C (dose: 1.25 mg/kg/injection, schedule: Q01DX001 (ip), vehicle: saline) was 118 % of control and the T/C (dose: 1.5 mg/kg/injection, schedule: Q01DX009 (ip), vehicle: saline) was 108 % of control. The T/C (dose: 1.62 mg/kg/injection, schedule: Q04DX002 (ip), vehicle: saline) was 111 % of control, the T/C (dose: 1.62 mg/kg/injection, schedule: Q04DX003 (ip), vehicle: saline) was 107 % of control and the T/C (dose: 1.62 mg/kg/injection, schedule: Q04DX003 (ip), vehicle: water) was 100 % of control. For the same molecule, the T/C (dose: 2.0 mg/kg/injection, schedule: Q01DX009 (ip), vehicle: saline) was 86 % of control, the T/C (dose: 2.16 mg/kg/injection, schedule: Q04DX003 (ip), vehicle: saline) was 100 % of control and the T/C (dose: 2.5 mg/kg/injection, schedule: Q01DX001 (ip), vehicle: water) was 124 % of control. For the same molecule, the T/C (dose: 2.7 mg/kg/injection, schedule: Q04DX002 (ip), vehicle: saline) was 117 % of control, the T/C (dose: 2.7 mg/kg/injection, schedule: Q04DX003 (ip), vehicle: saline) was 100 % of control and the T/C (dose: 2.7 mg/kg/injection, schedule: Q04DX003 (ip), vehicle: water) was 101 % of control. The T/C (dose: 3.33 mg/kg/injection, schedule: Q01DX009 (ip), vehicle: saline) was 90 % of control, the T/C (dose: 3.6 mg/kg/injection, schedule: Q04DX003 (ip), vehicle: saline) was 102 % of control and the T/C (dose: 4.4 mg/kg/injection, schedule: Q01DX001 (ip), vehicle: saline) was 120 % of control. The T/C (dose: 4.5 mg/kg/injection, schedule: Q04DX002 (ip), vehicle: saline) was 120 % of control, the T/C (dose: 4.5 mg/kg/injection, schedule: Q04DX003 (ip), vehicle: saline) was 102 % of control and the T/C (dose: 4.5 mg/kg/injection, schedule: Q04DX003 (ip), vehicle: water) was 94 % of control. For the same molecule, the T/C (dose: 4.5 mg/kg/injection, schedule: Q04DX003 (iv), vehicle: saline) was 109 % of control, the T/C (dose: 5.0 mg/kg/injection, schedule: Q01DX001 (ip), vehicle: water) was 109 % of control and the T/C (dose: 6.0 mg/kg/injection, schedule: Q04DX003 (ip), vehicle: saline) was 106 % of control. For the same molecule, the T/C (dose: 6.2 mg/kg/injection, schedule: Q01DX001 (ip), vehicle: saline) was 116 % of control, the T/C (dose: 6.7 mg/kg/injection, schedule: Q01DX005 (ip), vehicle: saline) was 152 % of control and the T/C (dose: 6.7 mg/kg/injection, schedule: Q04DX003 (iv), vehicle: saline) was 102 % of control. The T/C (dose: 7.5 mg/kg/injection, schedule: Q04DX002 (ip), vehicle: saline) was 121 % of control, the T/C (dose: 7.5 mg/kg/injection, schedule: Q04DX003 (ip), vehicle: water) was 92 % of control and the T/C (dose: 10.0 mg/kg/injection, schedule: Q01DX001 (ip), vehicle: water) was 107 % of control. The T/C (dose: 10.0 mg/kg/injection, schedule: Q04DX003 (ip), vehicle: saline) was 87 % of control, the T/C (dose: 10.0 mg/kg/injection, schedule: Q04DX003 (iv), vehicle: saline) was 90 % of control and the T/C (dose: 12.5 mg/kg/injection, schedule: Q01DX001 (ip), vehicle: saline) was 109 % of control and 119 % of control. For the same molecule, the T/C (dose: 15.0 mg/kg/injection, schedule: Q01DX005 (ip), vehicle: saline) was 107 % of control, the T/C (dose: 15.0 mg/kg/injection, schedule: Q04DX003 (iv), vehicle: saline) was 88 % of control and the T/C (dose: 16.0 mg/kg/injection, schedule: Q04DX003 (ip), vehicle: saline) was 90 % of control. The T/C (dose: 20.0 mg/kg/injection, schedule: Q01DX001 (ip), vehicle: water) was 88 % of control.
For `c1ccc(OCC2CO2)c(OCC2CO2)c1` (centres undefined), the T/C (dose: 60.0 mg/kg/injection, schedule: Q01DX005 (ip), vehicle: saline with Tween-80) was 171 % of control, the T/C (dose: 120.0 mg/kg/injection, schedule: Q01DX005 (ip), vehicle: saline with Tween-80) was 164 % of control and 167 % of control and the T/C (dose: 240.0 mg/kg/injection, schedule: Q01DX005 (ip), vehicle: saline with Tween-80) was 252 % of control.
For `N[C@@H](Cc1c[nH]c2ccccc12)C(=O)Nc1nncs1`, the T/C (dose: 18.75 mg/kg/injection, schedule: Q01DX005 (ip), vehicle: saline) was 99 % of control, the T/C (dose: 37.5 mg/kg/injection, schedule: Q01DX005 (ip), vehicle: saline) was 96 % of control and the T/C (dose: 75.0 mg/kg/injection, schedule: Q01DX005 (ip), vehicle: saline) was 90 % of control. For the same molecule, the T/C [1] was 92 % of control and the T/C (dose: 300.0 mg/kg/injection, schedule: Q01DX005 (ip), vehicle: saline) was 96 % of control.
`CN1CCN(c2ccc3nc(-c4ccc5nc(-c6ccc(O)cc6)[nH]c5c4)[nH]c3c2)CC1` was tested, and the T/C [2] was 118 % of control, the T/C [3] was 109 % of control and the T/C [4] was 105 % of control. The T/C [5] was 103 % of control.
In the case of `Nc1ncn(C2OC(CO)C(O)C2O)c(=O)n1` (centres undefined), the T/C (dose: 30.0 mg/kg/injection, schedule: Q01DX009 (ip), vehicle: saline) is reported as 232 % of control and 246 % of control, the T/C (dose: 44.0 mg/kg/injection, schedule: Q01DX005 (ip), vehicle: saline) is reported as 183 % of control and the T/C [2] is reported as 248 % of control and 261 % of control. For the same molecule, the T/C (dose: 67.0 mg/kg/injection, schedule: Q01DX005 (ip), vehicle: saline) was 189 % of control, the T/C [3] was 253 % of control and 280 % of control and the T/C (dose: 100.0 mg/kg/injection, schedule: Q01DX005 (ip), vehicle: saline) was 210 % of control. For the same molecule, the T/C [4] was 263 % of control and 270 % of control, the T/C [1] was 206 % of control and the T/C [5] was 277 % of control and 296 % of control. The T/C (dose: 200.0 mg/kg/injection, schedule: Q01DX005 (ip), vehicle: saline) was 207 % of control.
`COc1cccc2c1C(=O)c1c(O)c3c(c(O)c1C2=O)C[C@@](O)(C(=O)CO)C[C@@H]3OC1CC(N2CCOCC2C#N)C(O)C(C)O1` (some centres undefined) was tested, and the T/C (dose: 9.38 micrograms/kg/injection, schedule: Q04DX003 (ip), vehicle: saline with Tween-80) was 173 % of control and 175 % of control, the T/C (dose: 15.0 micrograms/kg/injection, schedule: Q04DX003 (iv), vehicle: saline + alcohol) was 107 % of control and the T/C (dose: 22.0 micrograms/kg/injection, schedule: Q04DX003 (iv), vehicle: saline + alcohol) was 99 % of control. The T/C (dose: 33.0 micrograms/kg/injection, schedule: Q04DX003 (iv), vehicle: saline + alcohol) was 88 % of control and the T/C (dose: 37.5 micrograms/kg/injection, schedule: Q04DX003 (ip), vehicle: saline with Tween-80) was 160 % of control.
